In US20200317660A1, “Quinazolinone Compound and Application Thereof” (LUOXIN PHARMACEUTICAL (SHANGHAI) CO., LTD., priority 2017, published 2020):
Like-named read-outs stand apart in the source and are kept apart here.

Assays:
[1] = biological target: T1, PI3Kα (Homo sapiens, UniProt P42336); test: In vitro test of enzyme activity (ADP-Glo lipokinase), PI3K alpha; type: biochemical; conditions: 40 μM ATP, 50 μM PIP2:3PS, 120 min
T1 construct: purchased Millipore 14-602-K

[2] = test system: human breast cancer BT-474 cells; test: Subcutaneous xenograft tumor model of human breast cancer BT-474 cells; type: in vivo, BALB/c nude mouse; conditions: BT-474 xenograft, 30 mpk
Protocol: 2. In vivo drug-efficacy study
(1) BALB/c nude mouse subcutaneous xenograft tumor model of human breast cancer BT-474 cells
Human breast cancer BT-474 cells (ATCC, Manassas, Va., batch number: HTB-20) were subjected to in vitro monolayer culture, and the culture conditions were: Hybri-Care medium with 10% fetal bovine serum and 1% double antibody, 37° C. and 5% CO2 incubator. The cells were passaged by digestion with trypsin-EDTA twice a week. When the cells saturation reached 80-90%, and the quantity met the requirement, the cells was collected, counted and inoculated.
Tumor cell inoculation (tumor inoculation)
The subcutaneous implantation of the estrogen tablets (Innovative Research, Cat # SE-121, 0.36 mg/60-day release) was carried out one day before cell inoculation. 0.2 mL […] of BT-474 cells (with matrigel, volume 1:1) was subcutaneously inoculated into the right back of each mouse. When the average tumor volume reached 188 mm^3, the administration was started in groups.
Preparation of Test Substance […]
The experimental index was to evaluate whether the tumor growth was inhibited, delayed or cured. The diameter of the tumor was measured with a vernier caliper twice a week. […]
The antitumor efficacy of the compound was evaluated by TGI (%) or relative tumor proliferation rate T/C (%). […]

[3] = biological target: T2, PI3Kδ (Homo sapiens, UniProt O00329); test: In vitro test of enzyme activity (ADP-Glo lipokinase), PI3K delta; type: biochemical; conditions: 40 μM ATP, 50 μM PIP2:3PS, 120 min
T2 construct: purchased Millipore 14-604-K

[4] = biological target: T3, PI3Kβ (Homo sapiens, UniProt P42338); test: In vitro test of enzyme activity (ADP-Glo lipokinase), PI3K beta; type: biochemical; conditions: 40 μM ATP, 50 μM PIP2:3PS, 120 min
T3 construct: purchased Promega V1751

[5] = test system: phosphorylation of PI3K downstream protein Akt in MCF7 cells; test: In vitro test of cells activity: ELISA of Akt phosphorylation in MCF7 cells; type: cell-based; conditions: 2 h compound, insulin 10 μg/mL stimulation, pAkt ELISA, read-out: MCF7 Cell IC50
Protocol: 2. In vitro test of cells activity
By the method of ELISA, the inhibition level of the test compound on the phosphorylation of PI3K downstream protein Akt in the signaling pathway was determined in MCF7 cells line to reflect the cells activity of the compound.
Cell culture medium: complete cell culture medium (RPMI 1640+10% serum+1% L-glutamine+1% double antibody)
Serum-free medium (without serum, RPMI 1640+1% L-glutamine+1% double antibody)
The detailed procedures areas follows:
(1) MCF7 cells (ATCC® HTB-22™) were inoculated into a 96-well plate at 100 μL of cell complete medium per well (2.5*10^4 cells per well), and the cells were incubated at 37° C. and 5% CO2 for 24 hours.
(2) The complete cell culture medium was replaced with 100 μL of serum-free medium, and incubated for starvation overnight.
(3) The compound was prepared (The initial concentration of the compound is 1 mM, which was subjected to a three-fold dilution in 10 concentrations, and the compound of each concentration was then diluted 100-fold with serum-free medium). 25 μL of the diluted compound was added to the cells orifice plate.
(4) The cells were incubated at 37° C. and 5% CO2 for 2 hours.
(5) The cells in the well plate were stimulated with 10 μg/mL insulin (Sigma # I9278-5 mL), incubated for 30 minutes, and then centrifuged at 1000 rpm for 5 minutes at room temperature.
(6) 250 μL of 1× balanced salt solution (Invitrogen, #14065-056, 4° C., containing 1 mM/L Na3VO4) was added to each well to wash the cells once.
(7) 100 μL of lysis buffer (trimethylolaminomethane hydrochloride, Invitrogen, #15567-1000 ml) was added to each well, shaken at 4° C. for 60 minutes, and then centrifuged at 4000 rpm for 4 minutes.
(8) The following procedures were carried out according to the instructions of ELISA kit (TGR BioSciences # EKT002).

[6] = biological target: T4, PI3Kγ (Homo sapiens, UniProt P48736); test: In vitro test of enzyme activity (ADP-Glo lipokinase), PI3K gamma; type: biochemical; conditions: 25 μM ATP, 50 μM PIP2:3PS, 120 min
T4 construct: purchased Millipore 14-558-K

[7] = In vivo DMPK study in mice after a single administration; design: species or system female Balb/c mice; conditions: oral, 10 mpk
Protocol: Experimental objective: female Balb/c mice were used as the test animals, and the blood concentration of the compound was determined and the pharmacokinetic behavior was evaluated after a single administration.
Experimental operation: 12 healthy adult female Balb/c mice were selected, 6 for intravenous injection group and 6 for oral administration group. The compound to be tested was mixed with an appropriate amount of intravenous injection group vehicle (10% HP-betaCD: 10% solutol=1:1, pH=8), vortex-mixed and sonicated to prepare a 1.0 mg/mL clear solution, followed by filtration for subsequent use; the vehicle in the oral group was 0.5% MC/0.2% Tw80. After the test compound and the vehicle were mixed, it was vortex-mixed and sonicated to prepare a 1.0 mg/mL homogeneous suspension for subsequent use. After an intravenous administration at a dose of 1 mg/kg or an oral administration at the dose of 2 mg/kg and 10 mg/kg, whole blood of the mice was collected for a certain period of time to prepare plasma. The drug concentration was analyzed by LC-MS/MS method, and Phoenix WinNonlin software was used (Pharsight, USA) to calculate the pharmacokinetic parameters.
Cmax: the highest concentration of the drug in the body; F %: oral bioavailability; Oral DNAUC: area under the dose normalization curve; Vd: apparent volume of distribution; Cl: clearance rate; T1/2: half-life.

[8] = test system: PI3K; conditions: literature statement; cited from earlier work

T1 sequence (P42336 whole entry): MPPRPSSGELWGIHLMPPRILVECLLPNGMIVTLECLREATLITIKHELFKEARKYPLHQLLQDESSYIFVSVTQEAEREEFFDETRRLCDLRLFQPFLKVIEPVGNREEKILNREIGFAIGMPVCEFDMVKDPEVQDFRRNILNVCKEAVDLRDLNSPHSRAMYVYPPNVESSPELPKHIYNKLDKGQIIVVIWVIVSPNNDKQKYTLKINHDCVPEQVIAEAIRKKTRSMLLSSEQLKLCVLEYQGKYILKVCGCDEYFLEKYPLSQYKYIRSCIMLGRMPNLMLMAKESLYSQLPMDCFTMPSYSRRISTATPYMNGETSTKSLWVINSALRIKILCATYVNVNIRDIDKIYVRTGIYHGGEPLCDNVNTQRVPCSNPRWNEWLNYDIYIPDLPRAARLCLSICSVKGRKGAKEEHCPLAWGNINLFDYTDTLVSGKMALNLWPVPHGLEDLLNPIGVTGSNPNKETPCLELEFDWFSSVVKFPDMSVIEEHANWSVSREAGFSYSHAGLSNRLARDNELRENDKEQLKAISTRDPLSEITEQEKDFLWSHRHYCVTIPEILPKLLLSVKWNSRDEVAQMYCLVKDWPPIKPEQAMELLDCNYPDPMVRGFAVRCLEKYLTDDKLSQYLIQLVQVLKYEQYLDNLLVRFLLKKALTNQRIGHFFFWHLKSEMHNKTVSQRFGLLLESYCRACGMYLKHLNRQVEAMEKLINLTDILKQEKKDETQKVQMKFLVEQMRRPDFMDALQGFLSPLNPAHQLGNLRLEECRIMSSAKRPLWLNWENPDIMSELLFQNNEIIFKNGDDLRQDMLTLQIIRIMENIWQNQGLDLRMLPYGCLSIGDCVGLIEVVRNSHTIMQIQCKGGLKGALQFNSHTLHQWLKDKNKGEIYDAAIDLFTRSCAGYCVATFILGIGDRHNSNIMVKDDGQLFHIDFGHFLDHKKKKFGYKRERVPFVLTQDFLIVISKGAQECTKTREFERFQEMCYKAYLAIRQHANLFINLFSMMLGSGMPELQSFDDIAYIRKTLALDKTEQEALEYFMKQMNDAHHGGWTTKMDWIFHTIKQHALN
T1 sequence (P27986 whole entry partner): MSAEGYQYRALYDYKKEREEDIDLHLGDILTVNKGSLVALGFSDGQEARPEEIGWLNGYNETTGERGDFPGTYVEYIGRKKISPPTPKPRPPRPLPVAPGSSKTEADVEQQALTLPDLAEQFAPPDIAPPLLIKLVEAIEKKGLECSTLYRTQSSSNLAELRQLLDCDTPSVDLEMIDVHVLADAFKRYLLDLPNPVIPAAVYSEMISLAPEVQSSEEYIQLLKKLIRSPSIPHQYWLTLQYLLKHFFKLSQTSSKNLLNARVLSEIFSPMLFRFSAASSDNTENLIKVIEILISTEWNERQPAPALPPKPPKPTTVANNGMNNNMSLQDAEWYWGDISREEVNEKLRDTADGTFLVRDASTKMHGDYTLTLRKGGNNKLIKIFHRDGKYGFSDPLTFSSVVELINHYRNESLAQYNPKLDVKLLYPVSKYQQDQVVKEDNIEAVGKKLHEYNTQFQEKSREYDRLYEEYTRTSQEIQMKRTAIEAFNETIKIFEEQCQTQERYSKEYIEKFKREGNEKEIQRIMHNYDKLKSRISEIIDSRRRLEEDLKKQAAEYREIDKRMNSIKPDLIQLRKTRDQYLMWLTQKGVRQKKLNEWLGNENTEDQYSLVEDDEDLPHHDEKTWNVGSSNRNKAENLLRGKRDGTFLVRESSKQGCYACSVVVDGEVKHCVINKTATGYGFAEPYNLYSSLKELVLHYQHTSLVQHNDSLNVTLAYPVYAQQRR
T2 sequence (O00329 whole entry): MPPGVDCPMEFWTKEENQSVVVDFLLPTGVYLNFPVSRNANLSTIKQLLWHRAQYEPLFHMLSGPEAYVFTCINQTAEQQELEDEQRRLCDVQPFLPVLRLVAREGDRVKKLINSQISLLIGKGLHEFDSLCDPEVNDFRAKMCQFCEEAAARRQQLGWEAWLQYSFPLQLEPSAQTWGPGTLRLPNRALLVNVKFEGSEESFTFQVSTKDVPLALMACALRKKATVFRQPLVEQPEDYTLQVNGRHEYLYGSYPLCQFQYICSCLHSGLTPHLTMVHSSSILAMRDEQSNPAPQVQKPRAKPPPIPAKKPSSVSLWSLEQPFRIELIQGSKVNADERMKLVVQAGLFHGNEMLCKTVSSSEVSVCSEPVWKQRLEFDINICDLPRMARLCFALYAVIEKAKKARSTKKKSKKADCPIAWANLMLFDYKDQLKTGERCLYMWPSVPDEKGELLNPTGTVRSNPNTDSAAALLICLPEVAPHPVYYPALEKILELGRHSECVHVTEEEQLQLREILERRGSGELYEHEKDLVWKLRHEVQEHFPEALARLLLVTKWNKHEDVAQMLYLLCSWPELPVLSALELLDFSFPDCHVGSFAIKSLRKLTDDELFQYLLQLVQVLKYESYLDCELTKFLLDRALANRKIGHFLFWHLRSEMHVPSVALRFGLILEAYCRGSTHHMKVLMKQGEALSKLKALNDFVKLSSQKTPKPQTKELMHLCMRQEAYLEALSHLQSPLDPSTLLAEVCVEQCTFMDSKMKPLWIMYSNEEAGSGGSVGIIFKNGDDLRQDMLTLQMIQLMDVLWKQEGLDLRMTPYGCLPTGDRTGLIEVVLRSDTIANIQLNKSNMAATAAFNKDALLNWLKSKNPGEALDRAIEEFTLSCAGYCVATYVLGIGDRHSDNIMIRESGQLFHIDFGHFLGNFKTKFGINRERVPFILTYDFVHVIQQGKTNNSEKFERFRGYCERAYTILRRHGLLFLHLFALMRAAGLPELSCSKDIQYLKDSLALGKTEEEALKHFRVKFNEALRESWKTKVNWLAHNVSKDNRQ
T2 sequence (P27986 whole entry partner): as the sequence (P27986 whole entry partner) above
T4 sequence (P48736 whole entry): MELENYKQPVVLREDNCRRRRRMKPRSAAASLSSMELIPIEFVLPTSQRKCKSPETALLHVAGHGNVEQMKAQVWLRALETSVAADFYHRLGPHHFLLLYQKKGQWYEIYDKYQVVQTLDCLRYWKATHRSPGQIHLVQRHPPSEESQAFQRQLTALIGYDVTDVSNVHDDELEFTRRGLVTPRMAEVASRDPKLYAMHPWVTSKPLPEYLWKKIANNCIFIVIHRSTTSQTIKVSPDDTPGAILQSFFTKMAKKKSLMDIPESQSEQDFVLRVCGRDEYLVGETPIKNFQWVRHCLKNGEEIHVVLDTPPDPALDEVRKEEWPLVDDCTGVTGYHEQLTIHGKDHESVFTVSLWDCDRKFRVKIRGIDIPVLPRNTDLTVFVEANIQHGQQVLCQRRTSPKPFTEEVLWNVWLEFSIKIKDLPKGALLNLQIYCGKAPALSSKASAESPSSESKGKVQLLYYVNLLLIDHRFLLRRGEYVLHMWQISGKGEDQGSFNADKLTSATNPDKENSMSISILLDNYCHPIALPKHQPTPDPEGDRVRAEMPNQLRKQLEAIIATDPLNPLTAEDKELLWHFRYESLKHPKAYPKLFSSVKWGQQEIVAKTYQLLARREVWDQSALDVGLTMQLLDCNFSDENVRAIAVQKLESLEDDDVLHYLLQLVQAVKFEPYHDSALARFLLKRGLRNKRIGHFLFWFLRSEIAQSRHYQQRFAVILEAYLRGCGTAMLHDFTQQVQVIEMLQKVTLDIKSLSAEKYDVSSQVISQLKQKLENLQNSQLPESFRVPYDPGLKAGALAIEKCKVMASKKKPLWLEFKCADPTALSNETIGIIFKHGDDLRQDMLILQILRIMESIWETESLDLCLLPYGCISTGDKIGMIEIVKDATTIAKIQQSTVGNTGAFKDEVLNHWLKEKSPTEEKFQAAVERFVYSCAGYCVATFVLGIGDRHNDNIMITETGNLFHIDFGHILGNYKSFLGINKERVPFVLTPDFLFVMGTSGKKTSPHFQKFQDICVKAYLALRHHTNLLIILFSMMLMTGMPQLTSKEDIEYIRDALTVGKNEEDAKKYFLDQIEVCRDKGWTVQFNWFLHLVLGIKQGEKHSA
T3 sequence (P42338 whole entry): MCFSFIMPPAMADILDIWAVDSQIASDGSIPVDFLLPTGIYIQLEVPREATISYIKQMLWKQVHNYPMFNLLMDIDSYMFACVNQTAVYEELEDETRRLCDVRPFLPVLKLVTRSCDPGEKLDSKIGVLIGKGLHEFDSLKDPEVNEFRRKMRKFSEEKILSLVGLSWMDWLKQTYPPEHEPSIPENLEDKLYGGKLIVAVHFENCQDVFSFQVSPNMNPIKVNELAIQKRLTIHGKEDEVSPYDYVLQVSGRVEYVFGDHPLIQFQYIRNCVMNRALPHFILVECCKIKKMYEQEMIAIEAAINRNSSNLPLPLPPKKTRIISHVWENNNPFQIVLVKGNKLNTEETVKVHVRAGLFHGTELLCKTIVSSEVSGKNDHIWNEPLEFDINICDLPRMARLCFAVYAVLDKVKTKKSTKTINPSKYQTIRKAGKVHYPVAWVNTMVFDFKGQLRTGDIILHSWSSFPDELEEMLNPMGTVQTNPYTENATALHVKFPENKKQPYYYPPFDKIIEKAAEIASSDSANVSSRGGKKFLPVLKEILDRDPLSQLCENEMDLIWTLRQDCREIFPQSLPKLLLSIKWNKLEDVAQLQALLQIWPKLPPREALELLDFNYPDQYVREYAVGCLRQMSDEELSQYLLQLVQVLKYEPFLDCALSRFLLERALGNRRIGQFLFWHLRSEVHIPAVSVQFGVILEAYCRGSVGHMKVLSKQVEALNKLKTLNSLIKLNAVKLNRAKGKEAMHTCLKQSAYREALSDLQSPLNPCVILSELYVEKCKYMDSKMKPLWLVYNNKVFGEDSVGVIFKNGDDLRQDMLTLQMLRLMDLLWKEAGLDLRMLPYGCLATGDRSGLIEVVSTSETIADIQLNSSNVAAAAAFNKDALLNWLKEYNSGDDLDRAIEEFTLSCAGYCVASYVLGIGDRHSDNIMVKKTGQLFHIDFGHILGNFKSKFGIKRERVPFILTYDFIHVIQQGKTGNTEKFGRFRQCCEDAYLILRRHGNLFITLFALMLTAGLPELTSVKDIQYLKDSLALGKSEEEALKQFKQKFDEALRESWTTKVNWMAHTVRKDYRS
T3 sequence (P27986 whole entry partner): as the sequence (P27986 whole entry partner) above

SMILES | IC50 [1] | IC50 [3] | IC50 [4] | IC50 [5] | IC50 [6] | Cmax [7] | Oral DNAUC (area under the dose normalization curve) [7] | IC50 ([5]; Homo sapiens, MCF7, 2 h) | TGI % [2] | inhibitory effect on PI3K [8]
COc1ncc(-c2ccc3ncn(CC(C)C(=O)NCC(F)(F)F)c(=O)c3c2)cc1NS(=O)(=O)c1ccc(F)cc1Cl (single isomer, unassigned) [WX058] | 5.49 nM | 18.7 nM | 589 nM | 56.1 nM | 54.2 nM | – | – | – | 60.0% | –
CNC(=O)C(C)Cn1cnc2ccc(-c3cnc(OC)c(NS(=O)(=O)c4cc(Cl)ccc4Cl)c3)cc2c1=O (single isomer, unassigned) [WX183] | 0.95 nM | 6.34 nM | 166 nM | 51.4 nM | 8.21 nM | 25.9 µM | 4867 nM · h/mpk | – | – | –
CNC(=O)C(C)Cn1cnc2ccc(-c3cnc(OC)c(NS(=O)(=O)c4cc(C)ccc4Cl)c3)cc2c1=O (single isomer, unassigned) [WX214] | 2.22 nM | 18.8 nM | 278 nM | 17.2 nM | 31.4 nM | 8.41 µM | 734 nM · h/mpk | – | – | –
CNC(=O)C(C)Cn1cnc2ccc(-c3cnc(OC)c(NS(=O)(=O)c4cc(Cl)ccc4C)c3)cc2c1=O (single isomer, unassigned) [WX222] | 1.8 nM | 20.7 nM | 361 nM | 12.6 nM | 29.7 nM | 6.88 µM | 1300 nM · h/mpk | – | – | –

Further lines, with some results ahead:

IC50 [1] | IC50 [3] | IC50 [4] | IC50 [5] | IC50 [6] | Cmax [7] | Oral DNAUC (area under the dose normalization curve) [7] | IC50 ([5]; Homo sapiens, MCF7, 2 h) | SMILES | TGI % [2] | inhibitory effect on PI3K [8]
74.5 nM | – | 168 nM | – | – | – | – | 230 nM | COc1ncc(-c2ccc3ncn(CCN(C)C)c(=O)c3c2)cc1NS(=O)(=O)c1ccc(F)cc1 [R011, reference compound] | – | good inhibitory effect
13.9 nM | – | 67.9 nM | – | – | – | – | > 1000 nM | CCN(CC)CCn1cnc2ccc(-c3cnc(OC)c(NS(=O)(=O)c4ccc(F)cc4F)c3)cc2c1=O [R012, reference compound] | – | good inhibitory effect
